Source: US20140309107A1

What was measured:
[1] = test system: Botrytis cinerea; test: Botrytis cinerea Test (Roses)/Preventive (field trial); details: young rose plants in the field, sprayed twice five days apart, leaves and stems evaluated fifteen days after second application; B9 (RHAPSODY) 2 mL/L, F196 (SCALA) 1.25 mL/L, combination 2 mL/L + 1.25 mL/L
Experimental: The application rate of Bacillus subtilis AQ713 refers to the amount of (1.34%) Bacillus subtilis AQ713 (NRRL Accession No. B-21661) (i.e., spore preparation) contained in a formulation of AQ713.
The rose plants were grown in the field under conditions where disease pressure from Botrytis cinerea was present. Each treatment was applied twice to the plants at intervals five days apart. The efficacy of the treatments in preventing Botrytis infection on the leaves and stems of the plants was evaluated fifteen days after the second application.

[2] = test system: Alternaria solani; test: Alternaria Test (Tomatoes)/Preventive; format: in vivo; details: young tomato plants sprayed preventively, evaluated 3 days after inoculation; application rate B19 500 ppm, F206 100 ppm, B19 + F206 500 + 100 ppm (1:0.2); 0% = untreated control, 100% = no disease
Text: A solution comprising 8.5×10^8 CFU/g (1.34%) of this strain was used.

SMILES	Efficacy in % Found (activity observed) [1] [%]	Efficacy in % Found (activity observed) [2] [%]
Cc1cc(C)nc(Nc2ccccc2)n1 [F196 pyrimethanil, pyrimethanil]	40	–
C#CCOc1ccc(CCNC(=O)C(OCC#C)c2ccc(Cl)cc2)cc1OC (centres unmarked) [F206 mandipropamid, mandipropamid]	–	0
